Assay: photochromic response on an optical bench in ethyl cellulose resin (lambda max, sensitivity, saturation optical density, bleach rate)
Format: physicochemical
Conditions: for Δ OD @ SAT (saturation optical density): UV exposure 15 minutes; for Δ OD @ SAT (saturation optical density) / Sensitivity Δ OD/MIN / Bleach rate T 1/2: ethyl cellulose resin; for Lambda max Band A / Lambda max Band B: activated (colored) form, in ethyl cellulose resin; for Sensitivity Δ OD/MIN: first five (5) seconds of UV exposure, expressed on a per minute basis, 75° F. (23.9° C.); for Bleach rate T 1/2: time to one half the highest absorbance at room temperature (72° F., 22.2° C.) after removal of activating light; for sensitivity versus Comparative Examples (in words): comparison of Table 1 results
Description: The photochromic compounds prepared in the Examples and the Comparative Examples were incorporated into an ethyl cellulose resin by the following procedure. About 30 milligrams of the photochromic compound was added to 2.0 grams of a 10 weight percent ethyl cellulose solution in toluene. The photochromic compound was dissolved by warming and stirring on a steam bath. Approximately 2.0 grams of the resultant solution was deposited on the edge of a 75 by 25 millimeter (mm) glass slide. Using a draw down bar, a 0.2 mm layer of photochromic resin solution was placed evenly on the slide and permitted to dry.
The photochromic test samples prepared in Part A were tested for photochromic response rates on an optical bench. Prior to testing on the optical bench, the photochromic test samples were exposed to 365 nanometer (nm) ultraviolet light for about 15 minutes to activate the photochromic compounds and then placed into a 76° C. oven for about 15 minutes to bleach or inactivate the photochromic compounds. The test samples were then cooled to room temperature, exposed to fluorescent room lighting for at least 2 hours and then kept covered for at least 2 hours prior to testing on an optical bench maintained at 75° F. (23.9° C.).
The optical bench comprises a 150 watt Xenon arc lamp, a tungsten lamp, power supplies for both lamps, condensing lenses as needed to maintain collimated light beams from both lamps, a remote controlled shutter, a copper sulfate bath acting as a heat sink for the arc lamp, a Schott WG-320 nm cut-off filter which removes short wavelength radiation, neutral density filter(s), a sample holder in which the sample to be tested is inserted, a photopic filter, light detector, and radiometer assembly, a strip chart recorder, and a means for maintaining the alignment of the aforestated components during testing.
Change in optical density (ΔOD) of a sample was determined by inserting a photochromic test sample in the bleached state into the sample holder, adjusting the transmittance scale to 100%, opening the shutter from the Xenon lamp to provide ultraviolet radiation to change the sample from the bleached state to an activated (darkened) state, measuring the transmittance through the sample. The transmittance was measured by directing a beam of light from the tungsten lamp at a small angle normal to the surface of the sample, through the sample, and to a photopic filter, light detector and radiometer assembly. The photopic filter passes wavelengths such that the detector mimics the response of the human eye and produces output signals that are processed by the radiometer. The change in optical density was calculated according to the formula Δ OD=log(100/% Ta) where % Ta is the percent transmittance in the activated state and the logarithm is to the base 10.
The Δ OD/Min, which represents the sensitivity of the photochromic compound's response to UV light, was measured over the first five (5) seconds of UV exposure, then expressed on a per minute basis. The saturation optical density (OD) was taken under identical conditions as the Δ OD/Min, except UV exposure was continued for 15 minutes. The lambda max value, which is the maximum absorption of the activated (colored) form of the photochromic compound in ethyl cellulose resin, may occur at one or two wavelengths reported as Band A and Band B in Table 1. The Bleach Rate T 1/2 is the time interval in seconds for the absorbance of the activated form of the benzopyran in the test sample to reach one half the highest absorbance at room temperature (72° F., 22.2° C.) after removal of the source of activating light.

Row | Compound | Δ OD @ SAT (saturation optical density) | Lambda max Band A | Sensitivity Δ OD/MIN | Bleach rate T 1/2 | Lambda max Band B | sensitivity versus Comparative Examples (in words)
1 | 3-(2-fluorophenyl)-3-(benzofur-2-yl)-3H-benzo(b)thieno[3,2-f]-1-benzopyran [Example 7] | 0.27 | 482 | 0.27 OD/MIN | 10.3 min | – | –
2 | C1=CC(c2ccccc2)(c2ccccc2)Oc2ccc3ccccc3c21 [Comparative Example 1, 3,3-diphenyl-3H-naphtho [2,1-b]pyran, reference compound] | 0.31 | 432 | 0.87 OD/MIN | 0.533 min | – | –
3 | C1=CC(c2ccccc2)(c2ccccc2)Oc2ccc3oc4ccccc4c3c21 [Comparative Example 2, 3,3-diphenyl-(3H)-benzo(b)furo[3,2-f]-1-benzopyran, reference compound] | 0.18 | 430 | 0.42 OD/MIN | 1.42 min | 522 | –
4 | C1=CC(c2ccccc2)(c2cc3ccccc3o2)Oc2ccc3ccccc3c21 (stereo not drawn) [Example 1, 3-phenyl-3-(benzofur-2-yl)-3H-naphtho[2,1-b]pyran] | 0.95 | 467 | 1.15 OD/MIN | 5.75 min | – | greater than Comparative Examples 1 and 2
5 | Fc1ccccc1C1(c2cc3ccccc3o2)C=Cc2c(ccc3ccccc23)O1 (stereo not drawn) [Example 2, 3-(2-fluorophenyl)-3-(benzofur-2-yl)-3H-naphtho[2,1-b]pyran] | 0.84 | 462 | 0.59 OD/MIN | > 30 min | – | greater than Comparative Example 2
6 | C1=CC(c2ccccc2)(c2cc3ccccc3s2)Oc2ccc3ccccc3c21 (stereo not drawn) [Example 3, 3-phenyl-3-(benzothiophen-2-yl)-3H-naphtho[2,1-b]pyran] | 0.52 | 460 | 0.76 OD/MIN | 2.03 min | – | greater than Comparative Example 2
7 | C1=CC(c2ccccc2)(c2cc3ccccc3o2)Oc2ccc3oc4ccccc4c3c21 (stereo not drawn) [Example 4, 3-phenyl-3-(benzofur-2-yl)-3H-benzo(b)furo[3,2-f]-1-benzopyran] | 0.34 | 453 | 0.26 OD/MIN | 5.18 min | 482 | –
8 | C1=CC(c2ccccc2)(c2csc3ccccc23)Oc2ccc3ccccc3c21 (stereo not drawn) [Example 5, 3-phenyl-3-(benzothiophen-3-yl)-3H-naphtho[2,1-b]pyran] | 0.34 | 440 | 0.62 OD/MIN | 1.55 min | – | greater than Comparative Example 2

The next lines start with the values.

Row | Δ OD @ SAT (saturation optical density) | Lambda max Band A | Sensitivity Δ OD/MIN | Bleach rate T 1/2 | Lambda max Band B | sensitivity versus Comparative Examples (in words) | Compound
9 | 0.86 | 448 | 0.49 OD/MIN | > 20 min | 507 | greater than Comparative Example 2 | COc1ccccc1C1(c2cc3ccccc3o2)C=Cc2cc3oc4ccccc4c3cc2O1 (stereo not drawn) [Example 6, 2-(2-methoxyphenyl)-2-(benzofur-2-yl)-2H-benzo(b)furo[2,3-g]-benzopyran]
10 | 0.23 | 476 | 0.25 OD/MIN | 3.77 min | 545 | – | C1=CC(c2ccccc2)(c2cc3ccccc3s2)Oc2ccc3oc4ccccc4c3c21 (stereo not drawn) [Example 8, 3-phenyl-3-(benzothiophen-2-yl)-3H-benzo(b)furo[3,2-f]-1-benzopyran]
11 | 0.18 | 444 | 0.22 OD/MIN | 2.97 min | 515 | – | C1=CC(c2ccccc2)(c2csc3ccccc23)Oc2ccc3oc4ccccc4c3c21 (stereo not drawn) [Example 9, 3-phenyl-3-(benzothiophen-3-yl)-3H-benzo(b)furo[3,2-f]-1-benzopyran]
12 | 0.98 | 482 | 0.66 OD/MIN | > 20 min | 532 | greater than Comparative Example 2 | COc1ccccc1C1(c2cc3ccccc3o2)C=Cc2c(ccc3sc4ccccc4c23)O1 (stereo not drawn) [Example 10, 3-(2-methoxyphenyl)-3-(benzofur-2-yl)-3H-benzo(b)thieno[3,2-f]-1-benzopyran]

Source: US5429774A, “Benzopyran compounds” (Transitions Optical, Inc., priority 1994, dated 1995)
